Measurements taken from US9724351B2, “Compounds for the treatment of paramoxyvirus viral infections” (priority 2012, dated 2017).

Columns and labels:
[1] = system: Respiratory Syncytial Virus (RSV) long strain (ATCC#VR-26); assay: RSV Antiviral Assay (CPE reduction assay); assay type: cell-based; settings: human respiratory syncytial virus, 120 h; HEp-2 cells infected with RSV long strain, 5 days, CCK-8 readout; bins (Table 2: less than 1 μM; Table 3: equal to or higher than 1 μM and less than 50 μM); read-out: 50% effective concentration (EC50)
How it was run: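 HEp-2 cells infected with 100 TCID50 RSV long strain per well, compounds from 100 μM or 1 μM in 9-point ⅓ dilutions, duplicates, 1% DMSO. After 5 days at 37 °C, viable cells measured by CCK-8 (A450, 630 nm background); EC50 by regression on mean O.D.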

[2] = Cytotoxicity Determination; assay type: cell-based; settings: human, HEp-2 cells, without addition of virus, CCK-8 readout, bins (Table 4: greater than 100 μM; Table 5: equal to or less than 100 μM and greater than 10 μM), read-out: 50% cytotoxicity concentration (CC50)
How it was run: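 Uninfected cells were exposed to compounds in duplicate over a 7-point ½ dilution series starting at 100 μM final, for 5 days at 37 °C, 5% CO2. CCK-8 was then added for 3-4 h, and CC50 was calculated from optical density.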

| Structure (SMILES) | EC50 [1] | CC50 at 5 days [2] |
| --- | --- | --- |
| C=C(C)c1cc(C(=O)CNC(=O)c2ccc(OC)c(OC)c2)nc(-c2csc3c(F)cccc23)c1 [Compound 1237] | < 1 µM | 10 to 100 µM |
| C=CCC/C(=N\NC(=O)CNC(=O)c1ccc(OCC)c(OC)c1)c1csc2ccccc12 [Compound 458A] | < 1 µM | 10 to 100 µM |
| COCC/C(=N/NC(=O)CNC(=O)c1ccc(OC)c(OC)c1)c1csc2c(F)cccc12 [Compound 400-16] | 1 to 50 µM | > 100 µM |
| COCCc1ccc(C(=O)NCC(=O)c2ccc(OC)c(-c3ccc(F)c(Br)c3)n2)cc1OC [Compound 1334] | < 1 µM | 10 to 100 µM |
| COc1cc(C(=O)NCC(=O)c2ccc(OC)c(-c3ccc(F)c(Cl)c3)n2)ccc1-n1cccn1 [Compound 2649] | 1 to 50 µM | 10 to 100 µM |
| COCC/C(=N/NC(=O)CNC(=O)c1ccc(OCCO)c(OC)c1)c1csc2c(F)cccc12 [Compound 603B] | < 1 µM | > 100 µM |
| CCOc1ccc(C(=O)NCC(=O)N/N=C(\CCOC)c2csc3c(F)cccc23)cc1OC [Compound 463A] | < 1 µM | > 100 µM |
| COc1cc(C(=O)NCC(=O)c2cn(C(C)C)cc(-c3csc4c(F)cccc34)c2=O)ccc1OCCO [Compound 2200] | < 1 µM | > 100 µM |
| COc1ccc(C(=O)NC(C)C(=O)c2ccc(OC)c(-c3csc4c(F)cccc34)n2)cc1OC (stereo not drawn) [Compound 1824] | < 1 µM | > 100 µM |
| COc1ccc(C(=O)NCC(=O)c2ccc(OC)c(-c3ccc4ncccc4c3)n2)cc1OC [Compound 1507] | 1 to 50 µM | 10 to 100 µM |
| CC/C(=N\NC(=O)CNC(=O)c1ccc(OC)c(OC)c1)c1csc2ccccc12 [Compound 415] | < 1 µM | 10 to 100 µM |
| COc1cc(C(=O)NCC(=O)c2ccc(OC)c(-c3ccc(F)c(Cl)c3)n2)ccc1OC1COC1 [Compound 1312] | < 1 µM | > 100 µM |
| COc1cc(C(=O)NCC(=O)c2ccc(OC)c(-c3ccc(F)c(Cl)c3)n2)ccc1OCC1CC1 [Compound 2638] | < 1 µM | 10 to 100 µM |
| COc1cc(C(=O)NCC(=O)c2ccc(OC)c(-c3ccc(F)c(Cl)c3)n2)ccc1OC(F)F [Compound 2646] | < 1 µM | 10 to 100 µM |
| COc1ccc(C(=O)CNC(=O)c2ccc(OCCO)c(C)c2)nc1-c1ccc(F)c(Cl)c1 [Compound 1309] | < 1 µM | > 100 µM |
| COc1ccc(C(=O)NCC(=O)N/N=C/c2ccc3ccsc3c2)cc1OC [Compound 496] | 1 to 50 µM | 10 to 100 µM |
| COc1ccc(C(=O)NCC(O)c2ccnc(-c3csc4c(F)cccc34)n2)cc1OC (stereo not drawn) [Compound 839, N-(2-(2-(7-fluorobenzo[b]thiophen-3-yl)pyrimidin-4-yl)-2-hydroxyethyl)-3,4-dimethoxy-benzamide] | 1 to 50 µM | > 100 µM |
| COc1cc(C(=O)NCC(=O)c2ccc(OC)c(-c3ccc(Cl)c(C(F)(F)F)c3)n2)ccc1OCCO [Compound 1623] | < 1 µM | > 100 µM |
| COc1cc(C(=O)N[C@@H](CO)C(=O)c2ccc(OC)c(-c3ccc(F)c(Cl)c3)n2)ccc1OCCO [Compound 1832] | < 1 µM | 10 to 100 µM |

| Structure (SMILES) | EC50 [1] | CC50 at 5 days [2] |
| --- | --- | --- |
| CCOc1ccc(C(=O)NCC(=O)N/N=C/c2csc3ccccc23)cc1OCC [Compound 231] | 1 to 50 µM | 10 to 100 µM |
| COc1ccc(C(=O)NCC(=O)N/N=C(\C)c2csc3ncccc23)cc1OC [Compound 400-10] | 1 to 50 µM | > 100 µM |
| COc1ccc(C(=O)NCC(=O)N/N=C(\CF)c2csc3ccccc23)cc1OC [Compound 444] | 1 to 50 µM | > 100 µM |
| COc1cc(C(=O)NCC(=O)c2cccc(-c3csc4c(F)cccc34)n2)ccc1OC1CNC1 [Compound 1251] | 1 to 50 µM | > 100 µM |
| COc1ccc(C(=O)NCC(=O)c2ccnc(-c3csc4c(F)cccc34)c2O)cc1OC [Compound 2102] | 1 to 50 µM | 10 to 100 µM |
| COc1ccc(C(=O)NCC(=O)c2cn(C)c(-c3csc4c(F)cccc34)n2)cc1OC [Compound 1228] | 1 to 50 µM | 10 to 100 µM |
| COc1cc(C(=O)N[C@H](CCO)C(=O)c2ccc(OC)c(-c3ccc(F)c(C(F)(F)F)c3)n2)ccc1OCCO [Compound 1806] | < 1 µM | > 100 µM |
| COc1ccc(C(=O)CNC(=O)c2ccnc(C)c2)nc1-c1ccc(F)c(Cl)c1 [Compound 4204] | 1 to 50 µM | > 100 µM |
| COc1ccc(C(=O)NCC(=O)N/N=C/c2c(C)n(C)c3ccccc23)cc1OC [Compound 486] | 1 to 50 µM | 10 to 100 µM |
| CCOc1ccc(C(=O)NCC(=O)N/N=C(\CC2CCCCC2)c2csc3ccccc23)cc1OC [Compound 460] | < 1 µM | > 100 µM |
| CCc1ccc(C(=O)CNC(=O)c2ccc(OC)c(OC)c2)nc1-c1csc2c(F)cccc12 [Compound 2105] | 1 to 50 µM | 10 to 100 µM |
| COc1cc(C(=O)NCC(=O)c2ccc(OC)c(-c3c(Cl)sc4c(F)cccc34)n2)ccc1OCCO [Compound 2621] | < 1 µM | > 100 µM |
| COc1cc(C(=O)NCC(=O)c2cccc(-c3csc4c(F)cccc34)n2)ccc1O[C@H]1CC[C@@H](O)CC1 [Compound 1225] | 1 to 50 µM | > 100 µM |
| COc1ccc(C(=O)NC(CCC(=O)O)C(=O)c2ccc(OC)c(-c3csc4c(F)cccc34)n2)cc1OC (stereo not drawn) [Compound 1821] | < 1 µM | 10 to 100 µM |
| COc1cc(C(=O)NCC(=O)c2ccc(OC)c(-c3ccc(F)c(Cl)c3)n2)ccc1OCC(C)N (stereo not drawn) [Compound 1315] | 1 to 50 µM | 10 to 100 µM |
| COc1cc(C(=O)NCC(=O)c2cccc(-c3csc4c(F)cccc34)n2)ccc1OCC(N)=O [Compound 1247] | < 1 µM | 10 to 100 µM |
| COc1ccc(C(=O)NCC(=O)c2nc(-c3csc4c(F)cccc34)cn2CC(C)C)cc1OC [Compound 1356] | 1 to 50 µM | > 100 µM |
| COc1ccc(C(=O)NCC(=O)N/N=C(\C)c2csc3ccc(F)cc23)cc1OC [Compound 422] | 1 to 50 µM | 10 to 100 µM |
| CCCC/C(=N\NC(=O)CNC(=O)c1cc(OC)c(OC)cc1Br)c1csc2ccccc12 [Compound 245] | 1 to 50 µM | 10 to 100 µM |

| Structure (SMILES) | EC50 [1] | CC50 at 5 days [2] |
| --- | --- | --- |
| COc1ccc(C(=O)NCC(=O)N/N=C/c2c(C)sc3ccccc23)cc1OC [Compound 400] | 1 to 50 µM | 10 to 100 µM |
| CCc1cc(C(=O)CNC(=O)c2ccc(OCCO)c(OC)c2)nc(-c2c[nH]c3c(F)cccc23)c1 [Compound 2112] | < 1 µM | > 100 µM |
| CCOc1ccc(C(=O)NCC(=O)N/N=C(\C)c2csc3ccccc23)cc1OC [Compound 502] | < 1 µM | > 100 µM |
| COc1ccc(C(=O)NCC(=O)N2CCCN(c3csc4c(F)cccc34)C2=O)cc1OC [Compound 2800] | 1 to 50 µM | 10 to 100 µM |
| COc1cc(C(=O)NCC(=O)c2ccc(OC)c(-c3ccc(F)c(O)c3)n2)ccc1OCCO [Compound 1328] | < 1 µM | > 100 µM |
| COc1ccc2scc(/C(C)=N/NC(=O)CNC(=O)c3ccc(OC)c(OC)c3)c2c1 [Compound 400-9] | 1 to 50 µM | 10 to 100 µM |
| CCCC/C(=N/NC(=O)CNC(=O)c1ccc(OCCO)c(OC)c1)c1csc2c(F)cccc12 [Compound 602] | < 1 µM | > 100 µM |
| CNc1cc(C(=O)CNC(=O)c2ccc(OC)c(OC)c2)nc(-c2csc3c(F)cccc23)c1 [Compound 1220] | < 1 µM | > 100 µM |
| COc1ccc(C(=O)NCC(=O)c2cn(C)cc(-c3csc4c(F)cccc34)c2=O)cc1OC [Compound 1338] | 1 to 50 µM | 10 to 100 µM |
| COc1ccc(C(=O)NCC(=O)N/N=C(\C)c2csc3cc(F)ccc23)cc1OC [Compound 400-22] | 1 to 50 µM | 10 to 100 µM |
| COc1cc(C(=O)NC(CCO)C(=O)c2ccc(OC)c(-c3ccc(F)c(Cl)c3)n2)ccc1OCCO (stereo not drawn) [Compound 1837] | < 1 µM | 10 to 100 µM |
| COc1ccc(C(=O)NCC(=O)N/N=C/c2csc3c(F)cccc23)cc1OC [Compound 490] | < 1 µM | > 100 µM |
| COc1cc(C(=O)NCC(=O)c2ccc(OC)c(-c3ccc(F)c(Cl)c3)n2)ccc1OCC(C)(C)O [Compound 1319] | < 1 µM | > 100 µM |
| COc1ccc(C(=O)NCC(=O)N/N=C(\C)c2csc3c(Cl)cccc23)cc1OC [Compound 400-11] | 1 to 50 µM | 10 to 100 µM |
| COc1ccc(C(=O)NCC(=O)c2ccc(OC)c(-c3csc4c(F)cccc34)n2)cc1OC [Compound 1336] | < 1 µM | > 100 µM |
| COc1cccc(/C(=N/NC(=O)CNC(=O)c2ccc(OC)c(OC)c2)C(F)(F)F)c1 [Compound 450] | 1 to 50 µM | > 100 µM |
| COC/C(=N\NC(=O)CNC(=O)c1ccc(OC)c(OC)c1)c1csc2ccccc12 [Compound 443] | 1 to 50 µM | > 100 µM |
| CCSc1ccc(C(=O)NCC(=O)N/N=C/c2csc3ccccc23)cc1 [Compound 238] | < 1 µM | 10 to 100 µM |
| COc1ccc(C(=O)NCC(=O)c2ccc3c(n2)-c2c(sc4c(F)cccc24)CO3)cc1OC [Compound 2701] | 1 to 50 µM | 10 to 100 µM |
